Measured values: ChEMBL document CHEMBL1153593, “Recent developments in the design and synthesis of hybrid molecules based on aminoquinoline ring and their antiplasmodial evaluation” (Eur J Med Chem, 2009)
≈ marks a conversion by molar mass, not a printed value.

What was measured:
[1] = Inhibition of Plasmodium falciparum falcipain-2
Plasmodium berghei [2] = assay: Gametocytocidal activity as infected mosquitoes against Plasmodium berghei at 10 uM/kg; format: functional
Plasmodium berghei [3] = assay: Gametocytocidal activity as oocysts per mosquito against Plasmodium berghei; format: functional
[4] = Stability assessed as hydrolysis to metabolite in presence of 80% human plasma; format: ADME, cell-free
Plasmodium falciparum [5] = assay: Antimalarial activity against chloroquine-resistant Plasmodium falciparum W2; format: functional, organism-based
Plasmepsin II = Plasmepsin II (Plasmodium falciparum, UniProt P46925); assay: Inhibition of Plasmodium falciparum plasmepsin-2
Plasmodium falciparum [6] = assay: microbe, parasite or virus in culture; settings: D10
Description: Antimalarial activity against chloroquine-sensitive Plasmodium falciparum D10

Plasmodium falciparum [7] = assay: Antimalarial activity against Plasmodium falciparum FcB1R; settings: read-out: ED50 (the source's name)
Plasmodium falciparum [8] = assay: Antimalarial activity against Plasmodium falciparum 3D7; format: functional, organism-based
Plasmodium falciparum [9] = assay: Antimalarial activity against chloroquine-resistant Plasmodium falciparum Dd2; format: functional, organism-based
Plasmodium falciparum [10] = assay: Antimalarial activity against chloroquine-resistant Plasmodium falciparum K1; format: functional, organism-based
Plasmodium yoelii [11] = assay: Antimalarial activity as reduced parasitaemia at day 4 against Plasmodium yoelii N67 infected Swiss mice (Mus musculus) compared to chloroquine; format: functional, N-67; set-up: concentration or dose not given beside the values
Plasmodium yoelii [12] = assay: Antimalarial activity as mean survival time against Plasmodium yoelii N67 infected Swiss mice (Mus musculus); format: functional, N-67
Plasmodium falciparum [13] = assay: Antimalarial activity against Plasmodium falciparum NF54; settings: NF-54

Sequence of Plasmepsin II (P46925 whole entry): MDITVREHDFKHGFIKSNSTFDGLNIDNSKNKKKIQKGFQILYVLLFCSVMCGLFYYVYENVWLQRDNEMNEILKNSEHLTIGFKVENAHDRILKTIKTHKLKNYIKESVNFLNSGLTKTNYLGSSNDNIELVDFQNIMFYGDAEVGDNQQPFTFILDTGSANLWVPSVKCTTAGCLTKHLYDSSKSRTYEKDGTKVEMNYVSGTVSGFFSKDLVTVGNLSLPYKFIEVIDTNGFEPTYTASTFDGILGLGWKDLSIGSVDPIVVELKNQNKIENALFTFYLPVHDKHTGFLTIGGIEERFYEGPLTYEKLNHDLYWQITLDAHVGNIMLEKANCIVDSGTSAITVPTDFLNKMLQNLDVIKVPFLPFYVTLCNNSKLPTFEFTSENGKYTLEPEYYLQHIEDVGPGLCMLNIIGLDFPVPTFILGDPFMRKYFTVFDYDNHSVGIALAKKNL

O=C(NCCNc1ccnc2cc(Cl)ccc12)N/N=C/c1ccc(O)c(CN2CCCCC2)c1O
IC50 [1]: 630 nM

COc1cc(NC(C)CCCN2C(=O)CNC23CCCCC3)c2ncccc2c1 (stereo not drawn)
Activity (Plasmodium berghei [2]): 25%
Activity (Plasmodium berghei [3]): 7.4
Stability [4]: Stable

CCCCNC(=O)C[C@H](O)[C@H](CC(C)C)NC(=O)[C@@H](NC(=O)c1ccc(Oc2ccc(C(=O)N[C@H](C(=O)N[C@H](CCCCN)C(=O)NCCCC(C)Nc3cc(OC)cc4cccnc34)C(C)C)cc2)cc1)[C@H](C)CC (stereo partly drawn)
IC50 (Plasmodium falciparum [5]): 700 nM
IC50 (Plasmepsin II): 590 nM
IC50 (Plasmodium falciparum [6]): 400 nM

O=C(CN1CCCCC1)Nc1cc(COC(=O)CCCCCC2=CC(=O)c3cccc(O)c3C2=O)cc(Nc2ccnc3ccc(Cl)cc23)c1
EC50 (Plasmodium falciparum [7]): 23 nM

COc1cc(NC(C)CCCN2C(=O)[C@@H](C(C)C)NC23CCCCC3)c2ncccc2c1 (stereo partly drawn)
Activity (Plasmodium berghei [2]): 85%
Activity (Plasmodium berghei [3]): 61.1
Stability [4]: Stable

COc1cc(NC(C)CCCN2C(=O)[C@@H](C(C)C)NC2(C)C)c2ncccc2c1 (stereo partly drawn)
Activity (Plasmodium berghei [2]): 25%
Activity (Plasmodium berghei [3]): 5
Stability [4]: Stable

COc1cc(NC(C)CCCN2C(=O)[C@@H](C(C)C)NC23CCCCCC3)c2ncccc2c1 (stereo partly drawn)
Activity (Plasmodium berghei [2]): 65%
Activity (Plasmodium berghei [3]): 17.7

CC(C)(C)NC(=O)C1(C)CCC(=O)N1CCCCCCNc1ccnc2cc(Cl)ccc12 (stereo not drawn)
IC50 (Plasmodium falciparum [5]): 180 nM

CCCCN(CCCNc1ccnc2cc(Cl)ccc12)Cc1ccoc1
IC50 (Plasmodium falciparum [8]): 50 nM
IC50 (Plasmodium falciparum [5]): 70 nM
IC50 (Plasmodium falciparum [9]): 45 nM

CCCCNC(=O)C[C@H](O)[C@H](CC(C)C)NC(=O)[C@@H](NC(=O)Cc1ccc2cc(C(=O)OCCCC(=O)N[C@H](C(=O)N[C@H](CCCCN)C(=O)NCCCC(C)Nc3cc(OC)cc4cccnc34)C(C)C)ccc2c1)[C@H](C)CC (stereo partly drawn)
IC50 (Plasmodium falciparum [5]): 1000 nM
IC50 (Plasmepsin II): 9600 nM
IC50 (Plasmodium falciparum [6]): 3300 nM

O=C(CN(CCCNc1ccnc2cc(Cl)ccc12)C(=O)c1ccc(O)cc1O)C1CCCCC1
IC50 (Plasmodium falciparum [10]): 3830 nM
IC50 (Plasmodium falciparum [5]): 5940 nM
IC50 (Plasmodium falciparum [6]): 1670 nM

CC1(C(=O)NC2CCCCC2)CCCC(=O)N1CCCCCCNc1ccnc2cc(Cl)ccc12 (stereo not drawn)
IC50 (Plasmodium falciparum [5]): 96 nM
IC50 [1]: 17600 nM

CC(C)(C)C(=O)CN(CCCNc1ccnc2cc(Cl)ccc12)C(=O)c1ccncc1
IC50 (Plasmodium falciparum [10]): 18200 nM
IC50 (Plasmodium falciparum [5]): 3810 nM
IC50 (Plasmodium falciparum [6]): > 20000 nM

CCCCN(CCCNc1ccnc2cc(Cl)ccc12)Cc1ccsc1
IC50 (Plasmodium falciparum [8]): 50 nM
IC50 (Plasmodium falciparum [5]): 50 nM
IC50 (Plasmodium falciparum [9]): 45 nM

O=C(CN(CCNc1ccnc2cc(Cl)ccc12)C(=O)c1cnccn1)C1CCCCC1
IC50 (Plasmodium falciparum [10]): 1350 nM
IC50 (Plasmodium falciparum [5]): > 10000 nM
IC50 (Plasmodium falciparum [6]): 793 nM

CC(C)(C)C(=O)CN(CCNc1ccnc2cc(Cl)ccc12)C(=O)c1ccc(O)cc1O
IC50 (Plasmodium falciparum [10]): 5790 nM
IC50 (Plasmodium falciparum [5]): 4140 nM
IC50 (Plasmodium falciparum [6]): 5660 nM

O=C1c2ccccc2SC(c2ccc(Cl)cc2)N1CCCNc1ccnc2cc(Cl)ccc12 (stereo not drawn)
Activity (Plasmodium yoelii [11]): 40.08%
Survival (Plasmodium yoelii [12]): 10.6 days
IC50 (Plasmodium falciparum [13]): 138 nM
MIC (Plasmodium falciparum [13]): 0.27 µM (≈ 0.134 µg/mL)

O=C(CN1CCCCC1)Nc1cc(COC(=O)CCCCC2=CC(=O)c3ccccc3C2=O)cc(Nc2ccnc3ccc(Cl)cc23)c1
EC50 (Plasmodium falciparum [7]): 23 nM

COc1cc(NC(C)CCCN2C(=O)[C@@H](C)NC23CCCCC3)c2ncccc2c1 (stereo partly drawn)
Activity (Plasmodium berghei [2]): 20%
Activity (Plasmodium berghei [3]): 0.8

CCCCNC(=O)C[C@H](O)[C@H](CC(C)C)NC(=O)[C@@H](NC(=O)Cc1ccc(CC(=O)N[C@H](C(=O)N[C@H](CCCCN)C(=O)NCCCC(C)Nc2cc(OC)cc3cccnc23)C(C)C)cc1)[C@H](C)CC (stereo partly drawn)
IC50 (Plasmodium falciparum [5]): 4200 nM
IC50 (Plasmepsin II): 135000 nM
IC50 (Plasmodium falciparum [6]): 5500 nM

O=C(CN(CCCNc1ccnc2cc(Cl)ccc12)C(=O)c1ccncc1)C1CCCCC1
IC50 (Plasmodium falciparum [10]): 73 nM
IC50 (Plasmodium falciparum [5]): 1570 nM
IC50 (Plasmodium falciparum [6]): 237 nM

O=C(CN1CCCCC1)Nc1cc(COC(=O)CCCCC2=CC(=O)c3cccc(O)c3C2=O)cc(Nc2ccnc3ccc(Cl)cc23)c1
EC50 (Plasmodium falciparum [7]): 23 nM

O=C(NCCNc1ccnc2cc(Cl)ccc12)N/N=C/c1ccc(O)c(CN2CCN(c3ccnc4cc(Cl)ccc34)CC2)c1O
IC50 [1]: 3160 nM

COc1cc(NC(C)CCCN2C(=O)CNC2(C)C)c2ncccc2c1 (stereo not drawn)
Activity (Plasmodium berghei [2]): 21%
Activity (Plasmodium berghei [3]): 6.1

COc1cc(NC(C)CCCN2C(=O)[C@@H](Cc3ccccc3)NC23CCCCC3)c2ncccc2c1 (stereo partly drawn)
Activity (Plasmodium berghei [2]): 83%
Activity (Plasmodium berghei [3]): 71
Stability [4]: Stable

O=C1CSC(c2c(Cl)cccc2Cl)N1CCNc1ccnc2cc(Cl)ccc12 (stereo not drawn)
Activity (Plasmodium yoelii [11]): 76.08%
Survival (Plasmodium yoelii [12]): 14.6 days
IC50 (Plasmodium falciparum [13]): 39 nM
MIC (Plasmodium falciparum [13]): 0.55 µM (≈ 0.249 µg/mL)

O=C(NCCNc1ccnc2cc(Cl)ccc12)N/N=C/c1ccc(O)c(CN2CCCC2)c1O
IC50 [1]: 720 nM

COc1cc(NC(C)CCCN2C(=O)[C@@H](C(C)C)NC23CCCC3)c2ncccc2c1 (stereo partly drawn)
Activity (Plasmodium berghei [2]): 35%
Activity (Plasmodium berghei [3]): 4.2

Clc1ccc2c(NCCCN(CCc3ccccc3)Cc3ncc[nH]3)ccnc2c1
IC50 (Plasmodium falciparum [8]): 50 nM
IC50 (Plasmodium falciparum [5]): 130 nM
IC50 (Plasmodium falciparum [9]): 150 nM

CCN(CC)Cc1c(O)ccc(/C=N/NC(=O)NCCNc2ccnc3cc(Cl)ccc23)c1O
IC50 [1]: 2600 nM

CN1CCN(Cc2c(O)ccc(/C=N/NC(=O)NCCNc3ccnc4cc(Cl)ccc34)c2O)CC1
IC50 [1]: > 20000 nM

O=C(CN(CCCNc1ccnc2cc(Cl)ccc12)C(=O)c1cnccn1)C1CCCCC1
IC50 (Plasmodium falciparum [10]): 521 nM
IC50 (Plasmodium falciparum [5]): 877 nM
IC50 (Plasmodium falciparum [6]): 242 nM

NC(=O)N/N=C/c1ccc(O)c(CN2CCN(c3ccnc4cc(Cl)ccc34)CC2)c1O
IC50 [1]: > 20000 nM

NC(=S)N/N=C1/C(=O)N(CCNc2ccnc3cc(Cl)ccc23)c2ccccc21
IC50 (Plasmodium falciparum [10]): 710 nM
IC50 (Plasmodium falciparum [5]): 240 nM
IC50 [1]: 14600 nM
IC50 (Plasmodium falciparum [6]): 320 nM

COc1cc(NC(C)CCCN2C(=O)[C@@H](Cc3ccccc3)NC23CCCC3)c2ncccc2c1 (stereo partly drawn)
Activity (Plasmodium berghei [2]): 65%
Activity (Plasmodium berghei [3]): 51.6

CC(C)(C)C(=O)CN(CCNc1ccnc2cc(Cl)ccc12)C(=O)c1cnccn1
IC50 (Plasmodium falciparum [10]): 1130 nM
IC50 (Plasmodium falciparum [5]): 1190 nM
IC50 (Plasmodium falciparum [6]): 712 nM

COc1cc(NC(C)CCCN2C(=O)[C@@H](Cc3ccccc3)NC23CCCCCC3)c2ncccc2c1 (stereo partly drawn)
Activity (Plasmodium berghei [2]): 90%
Activity (Plasmodium berghei [3]): 78.9
Stability [4]: Stable

NC(=S)N/N=C/c1ccc(O)c(CN2CCN(c3ccnc4cc(Cl)ccc34)CC2)c1O
IC50 [1]: 2250 nM

COc1cc(NC(C)CCCN2C(=O)[C@@H](Cc3ccccc3)NC2(C)C)c2ncccc2c1 (stereo partly drawn)
Activity (Plasmodium berghei [2]): 76%
Activity (Plasmodium berghei [3]): 61.2
Stability [4]: Stable

Cc1ccc2c(c1)/C(=N\NC(N)=S)C(=O)N2CCNc1ccnc2cc(Cl)ccc12
IC50 (Plasmodium falciparum [10]): 100 nM
IC50 (Plasmodium falciparum [5]): 51 nM
IC50 [1]: 11600 nM
IC50 (Plasmodium falciparum [6]): 79 nM

CC(C)(C)C(=O)CN(CCNc1ccnc2cc(Cl)ccc12)C(=O)c1ccncc1
IC50 (Plasmodium falciparum [10]): 1100 nM
IC50 (Plasmodium falciparum [5]): 991 nM
IC50 (Plasmodium falciparum [6]): 1060 nM

COc1cc(NC(C)CCCN2C(=O)[C@@H](CC(C)C)NC2(C)C)c2ncccc2c1 (stereo partly drawn)
Activity (Plasmodium berghei [2]): 30%
Activity (Plasmodium berghei [3]): 13.7
Stability [4]: Stable

O=C1CCSC(c2ccc(Cl)cc2)N1CCNc1ccnc2cc(Cl)ccc12 (stereo not drawn)
Activity (Plasmodium yoelii [11]): 81%
Survival (Plasmodium yoelii [12]): 15.2 days
IC50 (Plasmodium falciparum [13]): 13 nM
MIC (Plasmodium falciparum [13]): 0.26 µM (≈ 0.112 µg/mL)

CCCCNC(=O)C[C@H](O)[C@H](CC(C)C)NC(=O)[C@@H](NC(=O)Cc1ccc2cc(CC(=O)N[C@H](C(=O)N[C@H](CCCCN)C(=O)NCCCC(C)Nc3cc(OC)cc4cccnc34)C(C)C)ccc2c1)[C@H](C)CC (stereo partly drawn)
IC50 (Plasmodium falciparum [5]): 4700 nM
IC50 (Plasmepsin II): 1510 nM
IC50 (Plasmodium falciparum [6]): 6200 nM

O=C(CN(CCNc1ccnc2cc(Cl)ccc12)C(=O)c1ccncc1)C1CCCCC1
IC50 (Plasmodium falciparum [10]): 531 nM
IC50 (Plasmodium falciparum [5]): 619 nM
IC50 (Plasmodium falciparum [6]): 540 nM

O=C1c2ccccc2SC(c2c(Cl)cccc2Cl)N1CCCNc1ccnc2cc(Cl)ccc12 (stereo not drawn)
Activity (Plasmodium yoelii [11]): 23.5%
Survival (Plasmodium yoelii [12]): 13.8 days
IC50 (Plasmodium falciparum [13]): 14 nM
MIC (Plasmodium falciparum [13]): 0.28 µM (≈ 0.148 µg/mL)

CC(C)(C)C(=O)CN(CCCNc1ccnc2cc(Cl)ccc12)C(=O)c1cnccn1
IC50 (Plasmodium falciparum [10]): 2290 nM
IC50 (Plasmodium falciparum [5]): 1650 nM
IC50 (Plasmodium falciparum [6]): 1380 nM

O=C(NCCNc1ccnc2cc(Cl)ccc12)N/N=C/c1ccc(O)c(CN2CCOCC2)c1O
IC50 [1]: > 20000 nM

O=C(CN1CCCCC1)Nc1cc(COC(=O)CCC2=CC(=O)c3ccccc3C2=O)cc(Nc2ccnc3ccc(Cl)cc23)c1
EC50 (Plasmodium falciparum [7]): 23 nM

NC(=S)N/N=C1/C(=O)N(CCNc2ccnc3cc(Cl)ccc23)c2ccc(Cl)cc21
IC50 (Plasmodium falciparum [10]): 54 nM
IC50 (Plasmodium falciparum [6]): 95 nM
